Source: PMC6829886, “Inhibition of Non-Small Cell Lung Cancer Cells by Oxy210, an Oxysterol-Derivative that Antagonizes TGFβ and Hedgehog Signaling” (Cells, 2019)

Columns and labels:
Human TGFBR2 = target: T1, Human TGFBR2 (Homo sapiens, UniProt P37173); assay: TGFβ receptor II kinase inhibition assay (Eurofins); assay type: biochemical; conditions: vs. positive controls Cdk1/2 Inhibitor III and PKR Inhibitor
T1 construct: Human TGFBR2 (amino acid 188-end); purchased Eurofins
T1 sequence (P37173 188-567 limits assumed): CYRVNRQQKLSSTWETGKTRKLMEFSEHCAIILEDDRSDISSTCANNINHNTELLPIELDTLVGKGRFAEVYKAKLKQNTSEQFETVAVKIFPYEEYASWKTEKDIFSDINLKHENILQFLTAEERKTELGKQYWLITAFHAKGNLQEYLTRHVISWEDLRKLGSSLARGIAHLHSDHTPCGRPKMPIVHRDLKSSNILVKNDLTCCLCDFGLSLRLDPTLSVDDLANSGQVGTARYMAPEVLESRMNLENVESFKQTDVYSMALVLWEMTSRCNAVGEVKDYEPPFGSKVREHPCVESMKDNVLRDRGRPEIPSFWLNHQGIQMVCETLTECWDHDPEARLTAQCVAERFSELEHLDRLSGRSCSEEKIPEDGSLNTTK
Description: Effect of Oxy210 on inhibition of TGFβ receptors I and II kinase activity was assessed by Eurofins (Celle-L’Evescault, France). TGFBR1 (h): Human TGFBR1 (amino acid 200 to end) was incubated with 8 mM MOPS pH 7.0, 0.2 mM EDTA, 1 mM MnCl2, 2 mg/mL casein, 10 mM Magnesium acetate and […] (specific activity and concentration as required). The reaction was initiated by the addition of the Mg/ATP mix. After incubation for 40 min at room temperature, the reaction was stopped by the addition of phosphoric acid to a concentration of 0.5%. 10 μL of the reaction was then spotted onto a P30 filtermat and washed four times for 4 min in 0.425% phosphoric acid and once in methanol prior to drying and scintillation counting. TGFBR2 (h): Human TGFBR2 (amino acid 188-end) was incubated with 20 mM Tris/HCl pH 8.5, 0.2 mM EDTA, 0.33 mg/mL MBP, 10 mM Magnesium acetate and [9-33P-ATP] (specific activity and concentration as required). The reaction was initiated by the addition of the Mg/ATP mix. After incubation for 120 min at room temperature, the reaction was stopped by the addition of phosphoric acid to a concentration of 0.5%. […]
Figure 11 Inhibition of TGFβ-induced Smad2/3 phosphorylation and transcriptional activity. […] Luciferase activity was measured and normalized to the Renilla luciferase activity. […]

[1] = system: Hh pathway target genes Gli1 and Hip in Sufu-/- MEFs; assay: Hh target gene expression in Sufu-/- mouse embryonic fibroblasts; assay type: cell-based; conditions: 72 h
Description: Total RNA was extracted with the RNeasy Plus Mini Kit from Qiagen (Hilden, Germany) according to the manufacturer’s instructions. One microgram of RNA was reverse-transcribed using an iScript Reverse Transcription Supermix from Bio-Rad Laboratories (Hercules, CA, USA) to make single-stranded cDNA. The cDNAs were then mixed with Qi SYBR Green Supermix (Bio-Rad) for quantitative RT-PCR assay using a Bio-Rad I-cycler IQ quantitative thermocycler. All PCR samples were prepared in triplicate wells in a 96-well plate. After 40 cycles of PCR, melt curves were examined in order to ensure primer specificity. Fold changes in gene expression were calculated using the ΔΔCt method. Primers used for mouse were as follows: Oaz1 (5′-CCACTGCTTCGCCAGAGAG-3′) and (5′-CCCGGACCCAGGTTACTA-3′), Gli1 (5′- […]-3′ and 5′- GCT GATCCAGCCTAAGGTTCTC-3′), Ptch1 (5′-CCATCGGCGACAAGAACC-3′ and 5′-[…]-3′), Thbs1 (5′-[…]-3′ and 5′-CGGGGATCAGGTTGGCATT-3′), Cryab (5′-[…]-3′ and 5′-[…]-3′), Egr2 (5′-[…]-3′ and 5′-[…]-3′), CTGF (5′-GGGCCTCTTCTGCGATTTC-3′ and 5′-[…]-3′).
Figure 5 Oxy210 acts downstream of Smo. (a) Sufu-/- MEF cells were treated with DMEM containing 5% FBS in the presence or absence of Oxy210. After 72 h, RNA was extracted and analyzed by Q-RT-PCR for the expression of Hh target genes Gli1 and Hip, normalized to Oaz1 expression. […] Luciferase activity was measured and normalized to the Renilla luciferase activity. […]

**Q.** Which “inhibitory activity on TβRII in functional kinase assay” value (Human TGFBR2) does the source give for `C[C@]12CC[C@H]3[C@@H](CC=C4C[C@@H](O)CC[C@@]43C)[C@@H]1CC[C@@H]2[C@](C)(O)CCc1cccnc1` [Oxy210, (3S,8S,9S,10R,13S,14S,17S)-17-((R)-2-hydroxy-4-(pyridin-3-yl)butan-2-yl)-10,13-dimethyl-2,3,4,7,8,9,10,11,12,13,14,15,16,17-tetradecahydro-1H-cyclopenta[a]phenanthren-3-ol] here?
**A.** Its value is “did not display significant inhibitory activity”.

**Q.** What about the “high baseline expression of Hh pathway target genes Gli1 and Hip” value [1] of the same compound?
**A.** Its value is “significant inhibition”.
